Experiments:
Format in all cases: in vivo
[1] = tested on: Mycosphaerella fijiensis (MYCOFI); experiment: Field assessment of black sigatoka on banana; conditions: bananas; for Area Under Disease Progression Curve (AUDPC) from severity assessments: 52-59 days after application; for Percent control calculated from severity percentage: 52 days after application
Protocol: Aliquots of a 5% EC formulation of compound I were diluted with water and mixed with Spraytex CT mineral oil (6 L CP/Ha) to achieve active ingredient rates of 25, 50, 100 and 150 g ai/Ha. These treatments were delivered to the foliar affected area of single leaves (application volume of 40 L/Ha) by means of an Aerograph spayer through a plastic molding with an application area of 9×12 centimeters. A single application was delivered to leaf 1 (preventive and very early curative), and leaf 3 (curative effect). Experimental design was based on a randomized complete block, and 4 replications. MYCOFI symptoms resulted from natural inoculation and epidemic development.
Percent disease control was calculated using the ratio of disease severity on treated leaves relative to untreated leaves. Black sigatoka infection was assessed five times during the trial: 31 days after application (31DAA), 38DAA, 45DAA, 52DAA and 59DAA. Area under the disease progress curve (AUDPC) was calculated for each plot using the sets of recorded severity data. Relative AUDPC (% control based on AUDPC) was calculated as percent of the nontreated control.

[2] = tested on: Monilinia fructicola (MONIFC); experiment: Field microplot assessment on brown rot on apricots; conditions: field grown apricots
From the text: A field trial assessing the utility of Compound I on rot diseases of stone fruits was done using apricots in a microplot method, part of an experimental trial designed as a randomized complete block with four replications. In a microplot method, two mature fruits on a single branch or cluster of fruits were selected for each replication (for a total of 10 replications) instead of using an entire replication. Colored flagging identified treatments. Fungicidal treatments containing Compound I, applied in a 5% EC formulation and tank mixed with an adjuvant (Trycol, 50% w/w at 0.2% v/v), were sprayed on apricots (PRNAR) at rates of 50, 100, and 150 grams of active ingredient per hectare (g ai/ha). The applications to the selected mature apricots were done at 7 days before harvest using a hand held manual spray bottle at a water volume of 500 L/ha. One day after application, a ZipLoc plastic bag was placed over the fruit or fruit cluster and an inoculation mix of MONIFC (Rhizopus was from natural population present in the orchard) was sprayed inside covering the fruits. The plastic bags were removed after 24 hours. At harvest, the fruits were collected in the field and placed in plastic Tupperware containers. 150 mL of de-ionized water was poured in the bottom of the Tupperware containers and the fruits were sprayed with a light mist of water. The containers were brought to the lab, enclosed in a large trash bag to keep the humidity high, and incubated on a lab bench at approximately 23° C. Visual disease incidence was assessed during the trial at 9 and 16 days after application. Area under the disease progress curve (AUDPC) was calculated for each plot using the sets of recorded incidence data. Relative AUDPC (% control based on AUDPC) was calculated as percent of the nontreated control.

[3] = tested on: Rhizopus stolonifer (RIZPST); experiment: Field microplot assessment on Rhizopus rot on peaches; conditions: field grown peaches, 17 days after first application
[4] = tested on: Cladosporium carpopilum (CLADSP); experiment: Field assessment of almond scab; conditions: almond nut incidence, 121 DAAA
From the text: A fungicidal treatment containing Compound I, applied in an SC formulation (MSO built-in) and tank mixed with an adjuvant (Agnique BP-420, 50% w/w at 0.2% v/v or Adsee C80W 80%), was sprayed as a single application on almond trees (PRNDU, Winter variety) at rates of 60, 120, 150, and 180 g ai/ha. The experimental plots were run with natural infestation. The treatment was part of an experimental trial designed as a randomized complete block (RCB) with three replications and a plot of approximately 16×22 ft. Compound I was applied at water volume of 100 gal/acre, using a Mistblower sprayer (Orifice nozzle 2.3 setting).
Nut incidence (number of visual diseased nuts per 10 nuts per tree on whole plot) was assessed 121 days after application A (121 DAAA). Using Abbotts, % nut incidence of the treatments was used vs the nontreated to calculate % control.

Venturia pyrina (VENTPI) = experiment: Field assessment of pear scab; conditions: pears, 15 days after final application
From the text: A 10% SC formulation of Compound I was tank mixed with three different adjuvants: Agnique BP420 (50% w/w at 0.3% v/v), Ethomeen T18H (50% w/w at 0.15% v/v) and Trycol (50% w/w at 0.3% v/v). Formulations of compound I were sprayed on the plant canopy of pear trees (Highland variety) of approximately 2.5 m in height at rates of 100, 150 and 200 grams of active ingredient per hectare (g ai/ha). The trial was based on six foliar applications during the growing season at approximately 12 day intervals with natural pear scab and sooty mold infections in open field conditions. The treatment was part of an experimental trial designed as a randomized complete block with four replications and a plot of approximately 3×5 m. Formulations of compound I were applied with a SOLO mistblower sprayer at a water volume of 1500 L/ha.
For VENTPI evaluation, percent control was calculated based on incidence and severity in fruit assessment vs the nontreated control on a random selection of 50 fruits per plot. For CAPDSP assessment, percent control was calculated from percent leaf severity using Abbotts and the nontreated control. Percent control for both diseases was calculated at 11DAAE, 7DAAF and 15DAAF.

[5] = 100 g ai/ha, adjuvant Agnique BP420 (first such line, r11)
[6] = 100 g ai/ha, adjuvant Agnique BP420 (second such line, r13)
[7] = 200 g ai/ha, adjuvant Agnique BP420

COc1ccnc(C(=O)N[C@@H](C)C(=O)O[C@@H](C)C(c2ccc(F)cc2)c2ccc(F)cc2)c1OC(C)=O [Compound I, (S)-1,1-bis(4-fluorophenyl)propan-2-yl (3-acetoxy-4-methoxypicolinoyl)-L-alaninate]
Area Under Disease Progression Curve (AUDPC) from severity assessments ([1]; Leaf 1 (Preventive), 25 g ai/ha, untreated 665): 198 | Percent control calculated from severity percentage ([1]; Leaf 1 (Preventive), 25 g ai/ha): B (51-75) | Area Under Disease Progression Curve (AUDPC) from severity assessments ([1]; Leaf 1 (Preventive), 50 g ai/ha, untreated 665): 211 | Percent control calculated from severity percentage ([1]; Leaf 1 (Preventive), 50 g ai/ha): B (51-75) | Area Under Disease Progression Curve (AUDPC) from severity assessments ([1]; Leaf 1 (Preventive), 100 g ai/ha, untreated 665): 203 | Percent control calculated from severity percentage ([1]; Leaf 1 (Preventive), 100 g ai/ha): B (51-75) | Area Under Disease Progression Curve (AUDPC) from severity assessments ([1]; Leaf 1 (Preventive), 150 g ai/ha, untreated 665): 183 | Percent control calculated from severity percentage ([1]; Leaf 1 (Preventive), 150 g ai/ha): B (51-75) | Area Under Disease Progression Curve (AUDPC) from severity assessments ([1]; Leaf 3 (Curative), 25 g ai/ha, untreated 464): 357 | Percent control calculated from severity percentage ([1]; Leaf 3 (Curative), 25 g ai/ha): C (26-50) | Area Under Disease Progression Curve (AUDPC) from severity assessments ([1]; Leaf 3 (Curative), 50 g ai/ha, untreated 464): 317 | Percent control calculated from severity percentage ([1]; Leaf 3 (Curative), 50 g ai/ha): C (26-50) | Area Under Disease Progression Curve (AUDPC) from severity assessments ([1]; Leaf 3 (Curative), 100 g ai/ha, untreated 464): 289 | Percent control calculated from severity percentage ([1]; Leaf 3 (Curative), 100 g ai/ha): C (26-50) | Area Under Disease Progression Curve (AUDPC) from severity assessments ([1]; Leaf 3 (Curative), 150 g ai/ha, untreated 464): 293 | Percent control calculated from severity percentage ([1]; Leaf 3 (Curative), 150 g ai/ha): C (26-50) | Percent control (AUDPC) from fruit incidence, MONIFC ([2]; 50 g ai/ha): B (51-75) | Percent control (AUDPC) from fruit incidence, MONIFC ([2]; 100 g ai/ha): B (51-75) | Percent control (AUDPC) from fruit incidence, MONIFC ([2]; 150 g ai/ha): B (51-75) | RIZPST, percentage of diseased peaches (Incidence) ([3]; 50 g ai/ha): 67.5% | RIZPST, percentage of diseased peaches (Incidence) ([3]; 100 g ai/ha): 22.5% | RIZPST, percentage of diseased peaches (Incidence) ([3]; 150 g ai/ha): 35.0% | Calc Percent Control of CLADSP ([4]; 60 g ai/ha, Agnique BP420, 240 mL/ha): 47.3% | Calc Percent Control of CLADSP ([4]; 60 g ai/ha, MSO, 120 g ai/ha): 61.8% | Calc Percent Control of CLADSP ([4]; 120 g ai/ha, Agnique BP420, 480 mL/ha): 68.2% | Calc Percent Control of CLADSP ([4]; 120 g ai/ha, MSO, 240 g ai/ha): 97.0% | Calc Percent Control of CLADSP ([4]; 150 g ai/ha, Agnique BP420, 600 mL/ha): 69.7% | Calc Percent Control of CLADSP ([4]; 150 g ai/ha, MSO, 300 g ai/ha): 55.1% | Calc Percent Control of CLADSP ([4]; 180 g ai/ha, Agnique BP420, 720 mL/ha): 90.9% | Calc Percent Control of CLADSP ([4]; 180 g ai/ha, MSO, 360 g ai/ha): 39.5% | Percent control VENTPI, incidence in fruit assessment (Venturia pyrina (VENTPI); [5]): B (51-75) | Percent control VENTPI, severity in fruit assessment (Venturia pyrina (VENTPI); [5]): B (51-75) | Percent control VENTPI, incidence in fruit assessment (Venturia pyrina (VENTPI); [6]): B (51-75) | Percent control VENTPI, severity in fruit assessment (Venturia pyrina (VENTPI); [6]): A (76-100) | Percent control VENTPI, incidence in fruit assessment (Venturia pyrina (VENTPI); 100 g ai/ha, adjuvant ETHOMEEN): C (26-50) | Percent control VENTPI, severity in fruit assessment (Venturia pyrina (VENTPI); 100 g ai/ha, adjuvant ETHOMEEN): B (51-75) | Percent control VENTPI, incidence in fruit assessment (Venturia pyrina (VENTPI); 100 g ai/ha, adjuvant None): C (26-50) | Percent control VENTPI, severity in fruit assessment (Venturia pyrina (VENTPI); 100 g ai/ha, adjuvant None): B (51-75) | Percent control VENTPI, incidence in fruit assessment (Venturia pyrina (VENTPI); 100 g ai/ha, adjuvant Trycol): B (51-75) | Percent control VENTPI, severity in fruit assessment (Venturia pyrina (VENTPI); 100 g ai/ha, adjuvant Trycol): B (51-75) | Percent control VENTPI, incidence in fruit assessment (Venturia pyrina (VENTPI); [7]): B (51-75) | Percent control VENTPI, severity in fruit assessment (Venturia pyrina (VENTPI); [7]): B (51-75)

— patent US20200077655A1, “Use of an Acyclic Picolinamide Compound as a Fungicide for Control of Phytopathogenic Fungi in Orchard, Vineyard and Plantation Crops” (Dow AgroSciences LLC, priority 2017, published 2020)
